Values of other authors in paper PMC8538004, “Identification of a Novel Neuropeptide S Receptor Antagonist Scaffold Based on the SHA-68 Core” (Pharmaceuticals, 2021).

Experiments:
[1] = tested on: NPS-stimulated locomotor activity; design: method as in PMID 18337476, PMID 20172007; details: dosed at 50 mg/kg, 0.1 nmol of NPS; cited from earlier work
[2] = tested on: NPSR; design: method as in PMID 24964000, PMID 20615693, PMID 18337476, PMID 24171469, PMID 20510609; details: Figure 1, known NPSR antagonists; cited from earlier work

For `O=C(NCc1ccc(F)cc1)N1CCN2C(=O)OC(c3ccccc3)(c3ccccc3)C2C1` (centres unmarked) [SHA-68, 3-Oxo-1,1-diphenyl-tetrahydro-oxazolo[3,4-a]pyrazine-7-carboxylic Acid 4-Fluoro-benzylamide], the “Block of NPS-stimulated locomotor activity” value [1] is given as “significantly block” and the Ke [2] is given as 14 nM.
